The subject of data set [1] is Mtb H37Rv. Briefly: microbe, parasite or virus in culture. Type of data set: cell-based, Mycobacterium tuberculosis. The following applies: read-out: MIC for Mtb in liquid culture.
In data set [2] the test system is M. bovis BCG Pasteur. Briefly: microbe, parasite or virus in culture. Type of data set: cell-based, Mycobacterium bovis. The following applies: for MIC: read-out: MIC in Pasteur M. bovis BCG.
For data set [3], the system named is Mtb methylated ribosome. The data set is described as follows: Mtb in vitro translation assay with methylated (erythromycin-treated) ribosome. The format is biochemical, Mycobacterium tuberculosis.
The test system of data set [4] is erm37 mRNA. The format is cell-based, Mycobacterium tuberculosis. The following applies: inducer at 0.25µg/ml overnight, normalized to 23S.
Data set [5] concerns Mtb ribosome. The format is biochemical, Mycobacterium tuberculosis.
Data set [6] relates to Mtb H37Rv. The data set is described as follows: MIC80 after overnight pre-incubation of Mtb with subinhibitory macrolide. Conditions: Mycobacterium tuberculosis, read-out: MIC80. Type of data set: cell-based.
The format of data set [7] is in vitro ADME.
The format of data set [8] is in vitro ADME. This is another data set of the same source.
The conditions of data set [9]: pH 2, 50% acetonitrile/water.
Data set [10] is classed as in vitro ADME, human. On the procedure:
The metabolic stability of test compounds was determined as described.[57]^,[58] Incubation and experimental conditions with human hepatic microsomal fractions (purchased from BD Gentest as a pooled batch from 6 donors) were as follows: microsomal proteins, 1 mg/mL; bovine serum albumin, 1 mg/mL; substrate, 5 μM; incubation duration, 20 min; cytochrome P-450 monooxygenases (CYPs) and flavin containing monooxygenases (FMOs) cofactor, 1 mM NADPH. Enzyme activity was stopped with 1 volume of acetonitrile. […] For each test compound and for each microsomal preparation, three incubations were prepared: absolute reference in buffer (without enzyme material, i.e., microsomes); incubation without NADPH cofactor (with microsomal fractions); and incubation with NADPH (with microsomal fractions). For most compounds, biotransformation, as observed in hepatic microsomal fractions in the presence of the NADPH cofactor, consists of oxidative reactions catalyzed by either CYPs or FMOs. In these conditions, the percentage of total metabolism, which corresponds to oxidative metabolism, was determined as follows: [% total metabolism] ≈ [% oxidative metabolism] = [unchanged compound (UC) peak area − NADPH UC peak area + NADPH] × 100%, where NADPH corresponds to the enzyme cofactor for oxidation reactions catalyzed by either CYP or FMO.

The target in data set [11] is T1, CYP3A4 (Homo sapiens, UniProt P08684).
T1 construct: human liver microsomes (purchased from BD Gentest as a pooled batch from 150 donors); tissue BD Gentest Cat#452117; host or cells: pooled human liver microsomes (150 donors)
The data set is described as follows: CYP3A4 reversible inhibition in human liver microsomes. Type of data set: in vitro ADME. On the procedure:
Incubations were performed with 0.1 mg/mL human liver microsomes (purchased from BD Gentest as a pooled batch from 150 donors) in a final incubation volume of 0.25 mL. The incubation medium contained 0.05 M phosphate buffer (pH 7.4) containing an NADPH regenerating system (including 1.3 mM NADP, 3.3 mM glucose 6-phosphate,3.3 mM MgCl2, and 1.0 U/mL glucose 6-phosphate dehydrogenase). Probe CYP3A4 substrates (midazolam at 3 μM and testosterone at 50 μM), were incubated for 10 and 30 min, respectively, with increasing concentrations of GM, MGM or CGM (concentration range: 1 - 30 μM). The reaction was stopped by adding acetonitrile to precipitate the proteins. The incubation mixtures were then centrifuged for 5 min at 10,000 × g, and an aliquot of the supernatant was analyzed using high-performance liquid chromatography coupled to mass spectrometry for the assessment of 1’-hydroxymidazolam and 6β-hydroxytestosterone metabolite formation.
For orientation: Liver microsomes are a subcellular fraction often used to study metabolism.

The format of data set [12] is in vitro ADME. This is another data set of the same source.
The test system of data set [13] is RAW264.7 cells. Type of data set: in vitro ADME, murine. The following applies: versus neutral analog SEQ-416. How it is done:
RAW264.7 cells were allowed to adhere in 96 wells plates for 4 hours before compounds were added at 10 μM. Intracellular concentrations were measured by LC-MS/MS after cellular lysis. For each point, up to 4 hours, the Intra/Extra cellular ratio was calculated. Points are the mean ± SD of four tests. Clarithromycin and Azithromycin were used as references.

Data set [14] in a line: physchem. The following applies: pH 7.4.
The subject of data set [15] is GFP-expressing Mtb H37Rv in RAW264.7 macrophages. The data set is described as follows: Intramacrophage assay (MIC for Mtb in macrophages). The format is cell-based, Mycobacterium tuberculosis.
A short description of data set [16]: in vitro. Type of data set: in vitro ADME. The following applies: human, Caco-2; read-out: Permeability in Caco2 cells (Papp). (In general: Caco-2 cells form a polarised layer with tight junctions and transporters.)
A short description of data set [17]: physchem.
A short description of data set [18]: physchem. The format is physicochemical.
The nature of data set [19]: in vivo. The following applies: male, Swiss, mouse, po; for AUC: 30 mg/kg, oral 30 mg/kg.
Where [20] appears, read: Mycobacterium tuberculosis variant bovis BCG, BCG.

Values after ≈ are worked out from the molar mass of the structure shown. Values joined by “and” are separate entries in the source; they are usually repeats but may differ in a detail not shown here. Equal values may be shown once. Read-outs that look alike come from different tables or passages of the source.

The record followed here is publication PMC9994261 (Cell, 2023).

T1 sequence (P08684 whole entry): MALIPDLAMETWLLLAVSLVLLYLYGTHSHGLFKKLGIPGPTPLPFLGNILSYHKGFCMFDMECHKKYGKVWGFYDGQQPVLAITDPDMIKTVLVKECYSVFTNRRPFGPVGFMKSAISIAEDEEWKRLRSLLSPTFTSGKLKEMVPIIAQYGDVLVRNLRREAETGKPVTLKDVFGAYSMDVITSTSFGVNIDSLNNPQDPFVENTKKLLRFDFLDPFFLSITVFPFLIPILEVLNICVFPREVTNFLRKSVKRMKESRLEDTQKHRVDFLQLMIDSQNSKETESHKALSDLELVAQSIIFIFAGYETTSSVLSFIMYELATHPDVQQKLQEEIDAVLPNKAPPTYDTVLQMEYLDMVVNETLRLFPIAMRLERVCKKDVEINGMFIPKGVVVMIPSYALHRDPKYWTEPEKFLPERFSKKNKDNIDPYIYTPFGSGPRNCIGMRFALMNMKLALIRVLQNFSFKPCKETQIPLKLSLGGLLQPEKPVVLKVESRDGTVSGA

By IC50 is commonly meant the point on the concentration scale where inhibition reaches its midpoint. As to `CC[C@H]1OC(=O)[C@H](C)[C@@H](O[C@H]2C[C@@](C)(OC)[C@@H](O)[C@H](C)O2)[C@H](C)[C@@H](O[C@@H]2O[C@H](C)C[C@H](N(C)C)[C@H]2O)[C@](C)(OC)C[C@@H](C)C(=O)[C@H](C)[C@@H](O)[C@]1(C)O` [Clarithromycin], the MIC is 8 µM (≈ 5.98 µg/mL) in [1] (listed as clarithromycin), 2 µM (≈ 1.5 µg/mL) in [1] and 0.1 µM (≈ 0.0748 µg/mL) in [2] (setting [20]). The 50% inhibitory concentration (IC50) was 88.1 µM in data set [3] (methylated ribosome, read-out: IC50 methylated ribosome) and 0.354 µM in data set [5] (non-methylated ribosome, read-out: IC50 ribosome). Moreover, the “erm37 mRNA fold change” value in data set [4] was 57 fold change. Further, the MIC80 amounted to 2 µM (≈ 1.5 µg/mL) in data set [6] (Without induction); 4 µM (≈ 2.99 µg/mL) in data set [6] (overnight pre-incubation with SEQ-9 0.125µg/ml); 8 µM (≈ 5.98 µg/mL) in [6] (overnight pre-incubation with SEQ-9 0.25µg/ml); 8 µM (≈ 5.98 µg/mL) in data set [6] (overnight pre-incubation with clarithromycin 0.125µg/ml); 8 µM (≈ 5.98 µg/mL) in data set [6] (overnight pre-incubation with clarithromycin 0.25µg/ml).
By logD is commonly meant lipophilicity at a set pH, counting ionised and neutral species. What is called Papp is a coefficient for how fast a substance crosses the barrier. The pKa is the negative logarithm of the acid dissociation constant. Lower therefore signals a group that gives up its proton readily. The solubility is the dissolved amount per volume that the medium holds. What is called bioavailability is dose-corrected exposure relative to a reference, in per cent. Low values mean poor availability, high ones good availability. The AUC is concentration integrated over time. A high value points to more exposure. Consider `CON=C1C[C@@H](C)O[C@@H](O[C@@H]2[C@@H](C)[C@H](O[C@H]3C[C@@H](C)N(C)C[C@H](C)O3)[C@@H](C)C(=O)O[C@H](C(C)CO[C@@H]3O[C@H](C)[C@@H](O)[C@@H](OC)[C@H]3OC)[C@H](C)[C@@H](OC(=O)CC(C)C)[C@@H](C)C(=O)[C@@](C)(OC(=O)NCc3ccccc3)C[C@@H]2C)[C@@H]1O` (stereo partly drawn) [SEQ-372, (2R,3S,4R,5R,7S,9S,10S,11R,12S,13R)-7-[(benzylcarbamoyl)oxy]-2-(1-{[(2R,3R,4R,5R,6R)-5-hydroxy-3,4-dimethoxy-6-methyltetrahydro-2H-pyran-2-yl]oxy}propan-2-yl)-10-{[(2S,3R,6R)-3-hydroxy-4-(methoxyimino)-6-methyltetrahydro-2H-pyran-2-yl]oxy}-3,5,7,9,11,13-hexamethyl-6,14-dioxo-12-{[(2S,5R,7R)-2,4,5-trimethyl-1,4-oxazepan-7-yl]oxy}oxacyclotetradecan-4-yl 3-methylbutanoate], for which the “Metabolic degradation/clearance from human liver microsomes” value in data set [7] stood at 0.006 mL/h/10^6 hepatocytes. For the same molecule, the “Metabolic stability in rat liver microsomes (% metabolized compound after 20 min)” value in data set [8] stood at 22%. For the same molecule, the “Chemical stability: t/12@pH 2” value in data set [9] is reported as “∼25 h”. The “Metabolic stability in human liver microsomes (% metabolized compound after 20 min)” value in data set [10] (20 min incubation) came to 33%. Besides, the “Metabolic stability in human liver microsomes (% metabolized compound after 20 min), (K)” value in data set [10] (in presence of ketoconazole CYP3A inhibitor (K)) was 19(K) %. The “Metabolic stability in human liver microsomes (% metabolized compound after 20 min), (Q)” value in data set [10] (in presence of quinidine CYP2D6 inhibitor (Q)) is “/32 (Q) %”. The MIC in data set [1] (Mycobacterium tuberculosis, H37RV) came to 0.54 µM (≈ 0.606 µg/mL); in data set [2] (setting [20]), 0.28 µM (≈ 0.314 µg/mL); in [15] (Mycobacterium tuberculosis, H37RV, read-out: MIC for Mtb tuberculosis in macrophages), 0.06 µM (≈ 0.0673 µg/mL). Also, the “Growth inhibition (MIC80)” value in data set [2] was 0.29 µM and 0.25 µM and 0.34 µM. The MIC80 in [2] (Mycobacterium tuberculosis variant bovis BCG, BCG, read-out: Growth inhibition (MIC80)) was found to be 0.28 µM (≈ 0.314 µg/mL). Besides, the IC50 was found to be 0.054 µM in data set [3] (read-out: Translation inhibition of Mtb methylated ribosome (IC50 μM)); 1200 nM in data set [11] (midazolam, read-out: CYP3A4 inhibition, IC50 with midazolam as substrate); 3800 nM in data set [11] (testosterone, read-out: CYP3A4 inhibition, IC50 with testosterone as substrate (T)); 0.039 µM in data set [5] (read-out: Inhibition of Mtb translation (IC50 μM)). Further, the “Cytochrome 3A4 inhibition (in words)” value in data set [11] (human, pH 7.4) is given as “inhibited cytochrome 3A4”. The “Metabolic stability in mouse liver microsomes (% metabolized compound after 20 min)” value in data set [12] worked out at 8%. Further, the “Increase in macrophage accumulation compared with SEQ-416” value in data set [13] came to 20 fold. For the same molecule, the logD in data set [14] is 4.93. In addition, in [15] (versus SEQ-416), the “Increased potency against Mtb in the macrophage compared with SEQ-416” value was “approximately 10 fold”. The Papp in data set [16] came to 2.2 ×10⁻⁶ cm/s. Further, the pKa in [17] came out at 8.2. For the same molecule, the solubility came to 1420 µg/mL (≈ 1270 µM) in data set [18] (MCT pH 7.4, read-out: Solubility: MCT@pH 7.4) and 58.8 µg/mL (≈ 52.4 µM) in [18] (aqueous buffer, PBS pH 7.4, read-out: Solubility: PBS@pH 7.4). In data set [19], this molecule had a bioavailability of 17%. For the same molecule, the AUC in [19] (AUC in lung @30 mg/kg, lung) was determined as 18000 ng·h/mL; in data set [19] (AUC in plasma @30 mg/kg, plasma), 900 ng·h/mL.
